According to the NIST ThermoML archive (doi:10.1021/je201009c):

Assay: refractive index (Na D-line) (dimensionless); xn = mol fraction of the nth substance listed
Conditions: 101 kPa, Liquid, Standard Abbe refractometry

CC(=O)OCc1ccccc1 [benzyl ethanoate] + OCc1ccccc1
refractive index
Conditions | 293.15 K | 303.15 K | 313.15 K | 323.15 K
x1 = 0.05 | 1.53821 | 1.5339 | 1.52962 | 1.52532
x1 = 0.1001 | 1.53584 | 1.53143 | 1.52715 | 1.52278
x1 = 0.1502 | 1.53352 | 1.52903 | 1.52471 | 1.5203
x1 = 0.2001 | 1.53127 | 1.52673 | 1.52235 | 1.51791
x1 = 0.25 | 1.52907 | 1.52449 | 1.52007 | 1.5156
x1 = 0.3 | 1.52689 | 1.52231 | 1.51785 | 1.51335
x1 = 0.3498 | 1.5248 | 1.52022 | 1.51571 | 1.51118
x1 = 0.4001 | 1.52279 | 1.51819 | 1.51362 | 1.50908
x1 = 0.45 | 1.52083 | 1.51621 | 1.5116 | 1.50704
x1 = 0.5 | 1.51893 | 1.51428 | 1.50964 | 1.50506
x1 = 0.5501 | 1.5171 | 1.51239 | 1.50774 | 1.50314
x1 = 0.6001 | 1.5153 | 1.51057 | 1.5059 | 1.50128
x1 = 0.65 | 1.51352 | 1.50881 | 1.5041 | 1.49946
x1 = 0.6999 | 1.51182 | 1.50711 | 1.50237 | 1.49771
x1 = 0.7502 | 1.51014 | 1.50545 | 1.5007 | 1.49598
x1 = 0.8 | 1.50852 | 1.50383 | 1.49906 | 1.49434
x1 = 0.85 | 1.50696 | 1.50227 | 1.49748 | 1.49276
x1 = 0.9 | 1.50544 | 1.50075 | 1.49596 | 1.49124
x1 = 0.95 | 1.50396 | 1.49926 | 1.4945 | 1.48976
x1 = 1 | 1.50245 | 1.49776 | 1.49309 | 1.48834
